Data on one compound can be found in patent US20230101743A1, “SUBSTITUTED TRIAZINE COMPOUNDS AND USES THEREOF” (MUSC FOUNDATION FOR RESEARCH DEVELOPMENT, priority 2020, published 2023).

The test system of test [1] is Intracellular APOB. Description: Intracellular APOB accumulation (LDL uptake, pulse-chase, immunofluorescence). The settings on record: human iPSC-derived hepatocytes. In kind it is cell-based. The procedure: C. Human iPSC-derived hepatocytes (iPSC-Heps) were treated with 2 μg/mL of DL-1 or equivalent concentration of DMSO for 24 hours. In FIG. 7A, APOB mRNA level was determined using real-time qPCR. In FIG. 7B Intracellular APOB, LDLR, and HSP90 protein levels were determined via immunoblot; Quantification of biological replicates of immunoblots. Data are shown as mean±SD of four replicates (n=4). In FIG. 12A LDL uptake assay was performed by pre-treating cells with 2 μg/mL of DL-1, 20 μM of Atorvastatin, and equivalent concentration of DMSO for 24 hours followed by 4 hours of pHrodo-LDL exposure; LDL endocytosis was determined and quantified by fluorescence image; data are shown as mean±SD of triplicates (n=3). In FIG. 12B, iPSC-Heps were pre-treated with 3, 12, and 48 μg/mL of DL-9 for 2 hours, and cells were pulse-labeled with [^35S]methionine for 10 minutes and chased for 120 mins with or without DL-9 treatment; intracellular ^35S-APOB were determined by immunoprecipitation using anti-APOB antibody; band density was quantified and normalized with 5% of input (n=3). […]
Immunoprecipitation of cell lysates was performed using protein G magnet beads (ThermoFisher) and anti-APOB (LDL20/17, Mabtech) antibodies. […] Expression levels were quantified via integrated intensity normalized by 5% of input of each sample. […] Signals were detected using HRP-conjugated secondary antibodies. […]

For test [2], the system named is total cholesterol levels within the medium. Description: Total cholesterol quantification in culture medium of iPSC-derived hepatocytes. The settings on record: 2 μg/mL, 24 hours; normalized with DMSO treated control. The class given is cell-based, human. The procedure:
B. Human iPSC-derived hepatocytes were treated with 2 μg/mL of DL-1 for 24 hours. Total cholesterol levels within the medium were determined and normalized with DMSO treated control. Data are shown as mean±SEM of six replicates (n=6); * ** P<0.001.
Cell Culture medium was harvested from human iPSC-derived hepatocytes (Day 20) before and after 24 hours of DL-1 (2 μg/mL) or vehicle treatment. Pre-drug and Post-drug medium were concentrated using Amico® Ultra 10K Centrifugal Filters (Sigma-Aldrich, #Z740171), and total cholesterol levels were determined using the colorimetric cholesterol assay kit (Sigma-Aldrich, #MAK043) following the manufactural instructions.

The test system of test [3] is Albumin. Description: Secreted albumin ELISA in iPSC-derived hepatocytes. In kind it is cell-based, human. How it is done:
D. Human iPSC-derived hepatocytes were treated with DL-1 with concentrations ranging from 0.0325 to 12 or 48 μg/mL for 24 hours. Pre-drug and Post-drug medium were collected for analysis. Albumin and APOB levels were determined via ELISA assay. All secreted proteins were compared to non-treated cells. […] Data are shown as mean±SEM of four replicates (n=4); * p<0.01.
E. Human iPSC-derived hepatocytes were treated with 2 μg/mL of DL-1 from 8 to 48 hours. Albumin, APOPA, and APOB level in the culture medium were determined via ELISA. All secreted proteins were compared to non-treated cells. In FIG. 5, accumulated APOB in the medium from different time-point was measured and normalized to albumin level. In FIG. 6, APOA, APOB, and albumin in the medium at the indicated times were compared to control. […] Data are shown as mean±SEM of four replicates (n=4); *p<0.05, **p<0.01.
Human APOB level was determined via a commercial sandwich ELISA (3715-1H-6; Mabtech), and the signal was detected using the HRP-TMB system. The concentration of APOB was determined using a standard curve with four parameters logistic regression model. Human APOA level was determined via a commercial sandwich ELISA (3710-1H-6; Mabtech) following manufacture instruction. Human albumin levels in cell culture supernatants were measured by commercial ELISA (E88-129; Bethyl Laboratories) following manufactural instructions.
(In an ELISA, binding on a coated surface is turned into a signal by an enzyme label.)

Turning to `Sc1nc(S)nc(Nc2ccc(Nc3ccccc3)cc2)n1` (racemic) [DL-1, 6-{[4-(phenylamino)phenyl]amino}-1,3,5-triazine-2,4-dithiol], the “intracellular APOB accumulation” value in test [1] was “induced intracellular APOB accumulation independently of mRNA expression and LDL uptake”. In addition, the “total cholesterol level in culture medium” value in test [2] was “reduced total cholesterol level”. Moreover, the “albumin level in culture medium, time course” value in test [3] (2 μg/mL, 8 to 48 hours) is “without affecting albumin and APOA level”. For the same compound, the “albumin level, dose-response” value in test [3] (0.0325 to 12 or 48 μg/mL, 24 hours) is “without affecting albumin”.
